{"source": "patent EP4620962A1", "about": "“PEPTIDE HAVING ACTIVITIES TO PROMOTE HAIR GROWTH AND AMELIORATE DAMAGED HAIR, AND USE THEREOF” (Caregen Co., Ltd., priority 2022, dated 2025)", "key": {"[1]": {"system": "HOXC13, MSX2, and FOXN1 in human hair germinal matrix cells (HHGMCs)", "assay": "RT-PCR of activators of germinal matrix cells", "assay_type": "cell-based", "conditions": "RNA level; 5 µM, or 50 µM, 24 hours; FIGS. 13 and 14", "method": "In this experimental example, effects of a peptide according to an embodiment on expression of Homeobox protein Hox-C13 (HOXC13), Msh homeobox 2 (MSX2), and Forkhead box protein N1 (FOXN1), which are transcription factors related to activation of human hair germinal matrix cells ([…]), were examined. Specifically, human hair germinal matrix cells were seeded on a 6-well plate at a density of 4×10^5 cell/well, followed by incubation for 24 hours in a mesenchymal stem cell complete medium. Subsequently, the culture medium was replaced with a serum free mesenchymal stem cell complete medium, followed by incubation for 24 hours. Thereafter, a peptide according to an embodiment was aliquoted thereinto at a concentration of […], 5 μM, or 50 μM, followed by incubation for 24 hours at 37 °C. Then, gene expression was examined in the RNA level in the same manner as in Experimental Example 2-3 by using primers of Table 4 below. Meanwhile, a untreated group was used as a control, and a group treated with 50 nM EGF was used as a positive control."}, "[2]": {"system": "Ha3-II, Keratin 5, Keratin 14, and Keratin 19 in human hair outer root sheath cells (HHORSCs)", "assay": "RT-PCR of activators of outer root sheath cells", "assay_type": "cell-based", "conditions": "RNA level; 5 µM, or 50 µM, 24 hours; FIGS. 11 and 12", "method": "In this experimental example, effects of a peptide according to an embodiment on expression of type I cuticular Ha3-II (Ha3-II), Keratin 5, Keratin 14, and Keratin 19, which are cytokine related to activation of human hair outer root sheath cells (HHORSCs), were examined. Specifically, human hair outer root sheath cells were seeded on a 6-well plate at a density of 4×10^5 cell/well, followed by incubation for 24 hours in a mesenchymal stem cell complete media. Subsequently, the culture medium was replaced with a serum free mesenchymal stem cell complete medium, followed by incubation for 24 hours. Thereafter, a peptide according to an embodiment was aliquoted thereinto at a concentration of […], 5 µM, or 50 µM, followed by incubation for 24 hours at 37 °C. Then, gene expression was examined in the RNA level in the same manner as in Experimental Example 2-3 by using primers of Table 3 below. Meanwhile, a untreated group was used as a control, and a group treated with 50 nM EGF was used as a positive control."}, "[3]": {"system": "human hair follicle dermal papilla cells (HFDPCs)", "assay": "Proliferation of hair follicle dermal papilla cells (MTT)", "assay_type": "cell-based", "conditions": "5 µM, or 50 µM, 72 hours, absorbance at 540 nm, FIGS. 1 and 2", "method": "In this experimental example, effects of a peptide according to an embodiment on proliferation of human hair follicle dermal papilla cells were examined by evaluating a change in viability of the human hair follicle dermal papilla cells (HFDPCs). Specifically, human hair follicle dermal papilla cells were seeded on a 96-well plate at a density of 4×10^3 cells/well, followed by incubation in a mesenchymal stem cell complete medium for 24 hours. Subsequently, the culture medium was replaced with a serum free mesenchymal stem cell complete medium, followed by incubation for 24 hours. Thereafter, a peptide according to an embodiment was aliquoted thereinto at a concentration of […], 5 µM, or 50 µM, followed by incubation for 72 hours at 37 °C. Then, the culture was washed with PBS, and 10 µL of a 5 mg/ml MTT solution was aliquoted into each well. After incubating the culture in a CO2 incubator for 4 hours, the culture medium was removed, and 100 µL of dimethyl sulfoxide (DMSO) was added thereto, followed by stirring for 10 minutes. Thereafter, absorbance was measured at a wavelength of 540 nm by using a spectrophotometer. Meanwhile, a untreated group was used as a control, and a group treated with 1 µM EGF was used as a positive control."}, "[4]": {"system": "LEF-1, c-Myc, and cyclin D1", "assay": "RT-PCR of beta-catenin downstream target genes in hair follicle dermal papilla cells", "assay_type": "cell-based, human", "conditions": "RNA level, FIG. 7 (Peptide-1: c-Myc, cyclin D1), FIG. 8 (Peptide-2: LEF-1, c-Myc, cyclin D1)", "method": "In addition, a change in expression levels of lymphoid enhancer-binding factor-1 (LEF-1), c-Myc, and cyclin D1, which are downstream target genes of activating mechanism of beta-catenin, was examined. To this end, human hair follicle dermal papilla cells were incubated in the same manner in Experimental Example 2-2 and treated with a peptide according to an embodiment. Thereafter, the culture was washed with PBS and treated with 300 µL of easy blue (intron, Korea) to extract RNAs. Then, the extract RNAs were quantified by Nano drop, and cDNA was synthesized by using the RNAs as a template and using a cDNA synthesis kit (enzynomics, Korea). Then, polymerase chain reaction (PCR) was carried out using primers of Table 2 below and a PCR premix (enzynomics, Korea), followed by electrophoresis using a 1.5 % agarose gel, and gene expression was examined in the RNA level by a Bio-Rad gel image system."}, "DKK-1 (Dickkopf-1)": {"system": "DKK-1 (Dickkopf-1)", "assay": "DKK-1 expression (Western blot) in DHT-treated hair follicle dermal papilla cells", "assay_type": "cell-based, human", "conditions": "dihydrotestosterone (DHT) added; 5 µM, or 50 µM; FIGS. 9 and 10"}, "ERF and AKT": {"system": "ERF and AKT", "assay": "Western blot of proliferation-related factors (phospho-AKT, phospho-ERK) in hair follicle dermal papilla cells", "assay_type": "cell-based, human", "conditions": "5 µM, or 50 µM, 24 hours, FIGS. 3 and 4", "method": "In this experimental example, effects of a peptide according to an embodiment on activation of factors related to proliferation of human hair follicle dermal papilla cells were examined. Specifically, human hair follicle dermal papilla cells were seeded on a 6-well plate at a density of 4×10^5 cells/well, followed by incubation in a mesenchymal stem cell complete medium for 24 hours. Thereafter, a peptide according to an embodiment was aliquoted thereinto at a concentration of […], 5 µM, or 50 µM, followed by incubation for 24 hours at 37 °C. Then, the culture was washed with PBS, and 100 µL of a lysis buffer to prepare a cell lysate. Subsequently, bicinchoninic acid (BCA) was quantified to prepare an equal amount of a protein sample, followed by electrophoresis using a 10 % SDS-PAGE gel. Thereafter, proteins separated by the SDS-PAGE were transferred to a PVDF membrane, and the reaction was blocked using a 5 % skim milk at room temperature for 30 minutes. Then, phospho-AKT and phospho-ERK (cell signaling, USA) antibodies were diluted in a 3 % BSA at 1:1000 and reacted with the blocked PVDF membrane at 4 °C for 16 hours. Subsequently, the reactants were washed with 0.1 % PBS-T (0.1 % Tween-20 in PBS) three times each for 15 minutes and reacted for 1 hour with a secondary antibody diluted with 5 % skim milk at 1:2000. […]"}, "beta-catenin": {"system": "beta-catenin", "assay": "Nuclear beta-catenin Western blot in hair follicle dermal papilla cells", "assay_type": "cell-based, human", "conditions": "nuclear proteins, HDAC1 as nuclear marker, FIGS. 5 and 6", "method": "In this experimental example, effects of a peptide according to an embodiment on proliferation mechanism of human hair follicle dermal papilla cells were examined. Specifically, human hair follicle dermal papilla cells were incubated in the same manner as in Experimental Example 2-2, and treated with a peptide according to an embodiment. Then, nuclear proteins were isolated from the culture by using a nuclear protein extraction kit (Thermo scientific, USA). Subsequently, expression levels of proteins were examined in the same manner as in Experimental Example 2-2 by using beta-catenin (cell signaling, USA) and HDAC1 (santa cruz, USA) antibodies. Meanwhile, a untreated group was used as a control, and a group treated with 10 ng/mL recombinant human Wnt-3a protein (rhWnt-3a, R&D systems (USA, MN)) was used as a positive control."}}, "data": [{"substance": "Arg (R)-Cys (C)-Cys (C)-Gly (G) [Peptide-1]", "values": [{"measurement": "expression of HOXC13, MSX2, and FOXN1", "setting": "[1]", "result": "increased"}, {"measurement": "expression of Ha3-II, Keratin 14, and Keratin 19", "setting": "[2]", "result": "increased"}, {"measurement": "proliferation of dermal papilla cells", "setting": "[3]", "result": "promoted"}, {"measurement": "expression of LEF-1, c-Myc, and/or cyclin D1", "setting": "[4]", "result": "increased"}, {"measurement": "expression of DKK-1", "setting": "DKK-1 (Dickkopf-1)", "result": "inhibited"}, {"measurement": "phosphorylation of ERF and AKT", "setting": "ERF and AKT", "result": "induced"}, {"measurement": "migration of beta-catenin from cytoplasm to a nucleus", "setting": "beta-catenin", "result": "confirmed"}]}]}
